Several values for one entry are separate records, joined by “and”; a condition that tells them apart may be missing. Equal entries are not always repeated.
Test system: anesthetized PAH minipigs
Test: PAH minipig model: intratracheal application of dry powder formulations and different hydrates (PennCentury insufflator)
Assay type: in vivo, Göttingen minipig
Conditions: for BP (mean) / PAP(mean) / BP % changes vs. prevalues / PAP % changes vs. prevalues: 375 μg/kg i.t.; for BP (mean) / PAP(mean): absolute values; for BP % changes vs. prevalues / PAP % changes vs. prevalues: each animal
From the text: After characterization of the effects of comparative example 11 after nebulization of compound solutions, in a further step the effects of crystalline forms of comparative example 11, e.g. sesquihydrate, e.g. example 6e on PAP and BP after inhaled application of different dry powder lactose formulations (table C2.1.8) were studied in anesthetized PAH minipigs.
As reference pure Lactose vehicle was applied in the beginning of each experiment.

## O=C(O)c1ccc(CCN(CCc2ccccc2OCc2ccc(-c3ccc(C(F)(F)F)cc3)cc2Cl)[C@H]2CCCc3nc(C(=O)O)ccc32)cc1 [example 2, (5S)-{[2-(4-Carboxyphenyl)ethyl][2-(2-{[3-chloro-4′-(trifluoromethyl)biphenyl-4-yl]methoxy}phenyl)-ethyl]amino}-5,6,7,8-tetrahydroquinoline-2-carboxylic acid]
1.5 mg/4 kg (=375 μg/kg) intratracheally, micronized
  efficacy with regard to PAP reduction as well as systemic BP reduction: comparable efficacy
Time 0
  BP (mean): 109 mmHg and 127 mmHg and 136 mmHg
  PAP(mean): 35.8 mmHg and 38.7 mmHg and 39.7 mmHg
Time 10
  BP (mean): 110 mmHg and 126 mmHg and 135 mmHg
  PAP(mean): 35.8 mmHg and 38.7 mmHg and 37.1 mmHg
Time 20
  BP (mean): 117 mmHg and 128 mmHg and 139 mmHg
  PAP(mean): 38.9 mmHg and 38.2 mmHg and 40.2 mmHg
Time 30
  BP (mean): 121 mmHg and 128 mmHg and 139 mmHg
  PAP(mean): 39.8 mmHg and 38.6 mmHg and 40.0 mmHg
Time 40
  BP (mean): 123 mmHg and 127 mmHg and 137 mmHg
  PAP(mean): 40.4 mmHg and 39.0 mmHg and 40.7 mmHg
Time 50
  BP (mean): 120 mmHg and 127 mmHg and 135 mmHg
  PAP(mean): 39.7 mmHg and 39.2 mmHg and 40.2 mmHg
  BP % changes vs. prevalues: 99.1% and 100.1% and 100.0%
  PAP % changes vs. prevalues: 99.1% and 99.2% and 98.5%
Time 60
  BP (mean): 121 mmHg and 127 mmHg and 136 mmHg
  PAP(mean): 39.9 mmHg and 39.2 mmHg and 40.8 mmHg
  BP % changes vs. prevalues: 99.9% and 100.1% and 100.7%
  PAP % changes vs. prevalues: 99.7% and 99.3% and 99.8%
Time 70
  BP (mean): 124 mmHg and 126 mmHg and 137 mmHg
  PAP(mean): 39.1 mmHg and 36.0 mmHg and 37.2 mmHg
  BP % changes vs. prevalues: 102.4% and 99.3% and 101.4%
  PAP % changes vs. prevalues: 97.7% and 91.1% and 91.0%
Time 80
  BP (mean): 123 mmHg and 124 mmHg and 135 mmHg
  PAP(mean): 39.1 mmHg and 36.1 mmHg and 35.9 mmHg
  BP % changes vs. prevalues: 101.6% and 97.7% and 100.0%
  PAP % changes vs. prevalues: 97.7% and 91.3% and 88.0%
Time 90
  BP (mean): 122 mmHg and 125 mmHg and 134 mmHg
  PAP(mean): 37.9 mmHg and 35.2 mmHg and 34.5 mmHg
  BP % changes vs. prevalues: 100.7% and 98.5% and 99.2%
  PAP % changes vs. prevalues: 94.7% and 89.1% and 84.5%
Time 100
  BP (mean): 122 mmHg and 124 mmHg and 132 mmHg
  PAP(mean): 36.8 mmHg and 33.2 mmHg and 32.7 mmHg
  BP % changes vs. prevalues: 100.7% and 97.7% (2×)
  PAP % changes vs. prevalues: 91.8% and 84.0% and 80.0%
Time 110
  BP (mean): 122 mmHg and 125 mmHg and 133 mmHg
  PAP(mean): 35.5 mmHg and 31.9 mmHg and 31.2 mmHg
  BP % changes vs. prevalues: 100.7% and 98.5% (2×)
  PAP % changes vs. prevalues: 88.8% and 80.9% and 76.3%
Time 120
  BP (mean): 121 mmHg and 125 mmHg and 132 mmHg
  PAP(mean): 34.8 mmHg and 30.2 mmHg and 29.8 mmHg
  BP % changes vs. prevalues: 99.9% and 98.5% and 97.7%
  PAP % changes vs. prevalues: 87.0% and 76.6% and 73.0%
Time 130
  BP (mean): 120 mmHg and 124 mmHg and 131 mmHg
  PAP(mean): 34.2 mmHg and 29.7 mmHg and 29.3 mmHg
  BP % changes vs. prevalues: 99.1% and 97.7% and 97.0%
  PAP % changes vs. prevalues: 85.5% and 75.2% and 71.7%
Time 140
  BP (mean): 119 mmHg and 125 mmHg and 131 mmHg
  PAP(mean): 34.3 mmHg and 29.3 mmHg and 28.6 mmHg
  BP % changes vs. prevalues: 98.3% and 98.5% and 97.0%
  PAP % changes vs. prevalues: 85.6% and 74.3% and 70.0%
Time 150
  BP (mean): 117 mmHg and 124 mmHg and 130 mmHg
  PAP(mean): 33.7 mmHg and 28.4 mmHg
  BP % changes vs. prevalues: 96.6% and 97.7% and 96.3%
  PAP % changes vs. prevalues: 84.1% and 71.9% and 69.4%
Time 160
  BP (mean): 117 mmHg
  BP % changes vs. prevalues: 96.6% and 95.3% and 96.3%
  PAP % changes vs. prevalues: 84.1% and 70.4% and 68.1%
Time 170
  BP % changes vs. prevalues: 95.8% and 94.5% and 95.5%
  PAP % changes vs. prevalues: 83.8% and 69.8% and 68.5%
Time 180
  BP % changes vs. prevalues: 94.1% and 92.2% and 97.7%
  PAP % changes vs. prevalues: 83.8% and 68.7% and 68.9%
Time 190
  BP % changes vs. prevalues: 92.5% and 91.4% and 98.5%
  PAP % changes vs. prevalues: 83.9% and 67.7% and 69.3%
Time 200
  BP % changes vs. prevalues: 90.0% and 90.6% and 97.0%
  PAP % changes vs. prevalues: 83.7% and 67.9% and 68.5%
Time 210
  BP % changes vs. prevalues: 90.8%
  PAP % changes vs. prevalues: 83.4% and 66.5% and 67.7%
Time −10
  BP (mean): 116 mmHg and 126 mmHg and 139 mmHg
  PAP(mean): 37.9 mmHg and 37.8 mmHg and 39.4 mmHg

— patent US12138256B2, “Treatment of cardiopulmonary disorders” (Bayer Aktiengesellschaft, priority 2021, dated 2024)
